This note sets out measurements from US11384060B2, “Amide compounds and use thereof” (ALPHALA CO., LTD., priority 2017, dated 2022).

In assay [1] the target is T1, glucagon receptor (GCGR) (Homo sapiens, UniProt P47871).
T1 construct: expressed in transfected cells; host or cells: CHO-K1 cells overexpressing GCGR (membrane fractions)
Put plainly: I125-glucagon binding assay (competition, GCGR membrane fractions). The note with it: competition with I125-glucagon 0.0625 nM, membrane fractions of GCGR overexpressed CHO-K1 cells. The procedure, abridged: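 Competition of 0.0625 nM (final) I^125-glucagon for 30 min at 25° C, after 5 min compound preincubation, using 7.5 μg/well GCGR-overexpressing CHO-K1 membranes in 50 mM Tris pH 7.4, 0.5% BSA. Filtration onto PEI-coated GF/B, micro-beta counting, and non-linear regression gave IC50.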

Assay [2] has as its target T2, glucagon receptor (GCGR) overexpressed CHO-K1 cells or human primary hepatocytes (Homo sapiens, UniProt P47871).
T2 construct: expressed in transfected cells; host or cells: GCGR overexpressed CHO-K1 cells or human primary hepatocytes (endogenous receptor)
Put plainly: Glucagon cAMP inhibition assay (Cisbio cAMP Dynamic 2 HTRF). The class given is cell-based. As to conditions: inhibition of glucagon (EC50 concentration) induced cAMP production. In short, it runs like this: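 HTRF read-out of glucagon-induced cAMP, with IC50 from non-linear regression. Cells (GCGR CHO-K1 or human primary hepatocytes) in HBSS/0.1% BSA/800 nM IBMX took compound dilutions for 30 min (final DMSO 1%), then EC50-level glucagon for 30 min at room temperature, then a 60 min lysis/detection step.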
In general terms: In TR-FRET formats the signal depends on donor and acceptor labels being close together.

A word on the IC50: it is the concentration needed to halve the response being measured.

T2 sequence (P47871 26-477): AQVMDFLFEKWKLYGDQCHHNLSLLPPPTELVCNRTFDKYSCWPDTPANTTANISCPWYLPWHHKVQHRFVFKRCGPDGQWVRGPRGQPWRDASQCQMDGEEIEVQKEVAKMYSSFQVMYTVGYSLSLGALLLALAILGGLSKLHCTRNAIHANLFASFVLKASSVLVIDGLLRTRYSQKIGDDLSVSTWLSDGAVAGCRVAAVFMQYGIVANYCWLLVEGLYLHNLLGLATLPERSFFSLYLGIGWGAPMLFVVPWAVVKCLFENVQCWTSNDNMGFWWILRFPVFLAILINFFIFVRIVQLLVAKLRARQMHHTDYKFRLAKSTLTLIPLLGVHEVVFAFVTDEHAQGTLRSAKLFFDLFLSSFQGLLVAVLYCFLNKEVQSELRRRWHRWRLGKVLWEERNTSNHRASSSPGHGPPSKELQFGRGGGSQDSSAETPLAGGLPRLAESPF
T1 sequence (P47871 26-477): as above

Consider `CC[C@H](C)[C@@H](COc1ccc(-c2ccc(C(F)(F)F)cc2)c(F)c1)Nc1ccc(C(=O)NCCC(=O)O)cc1` [Compound 8-14, 3-(4-(((2S,3S)-1-((2-fluoro-4′-(trifluoromethyl)-[1,1′-biphenyl]-4-yl)oxy)-3-methylpentan-2-yl)amino)benzamido)propanoic Acid], for which the IC50 in assay [1] worked out at 251 nM. Further, in assay [2], the “IC50 cAMP” value came out at 250 nM.
Taken in the same sequence, the figures for `CCCC[C@@H](COc1ccc(-c2ccc(C(F)(F)F)cc2Cl)c(F)c1)Nc1ccc(C(=O)NCCC(=O)O)cc1` [Compound 8-15, (S)-3-(4-((1-((2′-chloro-2-fluor-4′-(trifluromethyl)-[1,1′-biphenyl]-4-yl)oxy)hexan-2-yl)amino)benzamido)propanoic Acid] were 59 nM and 129 nM.
In the same order, the values of `CCCC[C@@H](COc1ccc(-c2ccc(Cl)cc2Cl)c(F)c1)Nc1ccc(C(=O)NCCC(=O)O)cc1` [Compound 8-16, (S)-3-(4-((1-((2′,4′-dichloro-2-fluoro-[1,1′-biphenyl]-4-yl)oxy)hexan-2-yl)amino)benzamido)propanoic Acid] are 89 nM and 135 nM.
`CCCC[C@@H](COc1ccc(-c2ccc(C(F)(F)F)cc2F)c(F)c1)Nc1ccc(C(=O)NCCC(=O)O)cc1` [Compound 8-17, (S)-3-(4-((1-((2,2′-difluoro-4′-(trifluoromethyl)-[1,1′-biphenyl]-4-yl)oxy)hexan-2-yl)amino)benzamido)propanoic Acid]: in assay [1], the IC50 came to 308 nM. Further, in assay [2], the “IC50 cAMP” value is 227.6 nM.
Taken in the same sequence, the figures for `CCCC[C@@H](COc1ccc(-c2ccc(C(F)(F)F)cc2)c(F)c1)Nc1ccc(C(=O)NCCC(=O)O)cc1` [Compound 8-18, (S)-3-(4-((1-((2-fluoro-4′-(trifluoromethyl)-[1,1′-biphenyl]-4-yl)oxy)hexan-2-yl)amino)benzamido)propanoic Acid] were 158 nM and 153.5 nM.
`CC(C)C[C@@H](COc1ccc(-c2ccc(Cl)cc2Cl)c(F)c1)Nc1ccc(C(=O)NCCC(=O)O)cc1` [Compound 8-19, (S)-3-(4-((1-((2′,4′-dichloro-2-fluoro-[1,1′-biphenyl]-4-yl)oxy)-4-methylpentan-2-yl)amino)benzamido)propanoic Acid] yielded a half-inhibitory concentration (IC50) in assay [1] of 101 nM. In addition, in assay [2], the “IC50 cAMP” value is on record as 182 nM.
In turn, `CC(C)C[C@@H](COc1ccc(-c2cc3ccccc3o2)c(F)c1)Nc1ccc(C(=O)NCCC(=O)O)cc1` [Compound 8-20, (S)-3-(4-((1-(4-(benzofuran-2-yl)-3-fluorophenoxy)-4-methylpentan-2-yl)amino)benzamido)propanoic Acid] returned a 50% inhibitory concentration (IC50) in assay [1] of 83 nM. Moreover, in assay [2], the “IC50 cAMP” value amounted to 234 nM.
On to `CC(C)(C)[C@@H](COc1ccc(-c2cc3ccccc3o2)c(F)c1)Nc1ccc(C(=O)NCCC(=O)O)cc1` [Compound 8-21, (S)-3-(4-((1-(4-(benzofuran-2-yl)-3-fluorophenoxy)-3,3-dimethylbutan-2-yl)amino)benzamido)propanoic Acid], for which the IC50 in assay [1] is 111 nM. For the same compound, the “IC50 cAMP” value in assay [2] was determined as 181 nM.
Taken in the same sequence, the figures for `CC(C)(C)[C@@H](COc1ccc(-c2ccc(Cl)cc2Cl)c(F)c1)Nc1ccc(C(=O)NCCC(=O)O)cc1` [Compound 8-22, (S)-3-(4-((1-((2′,4′-dichloro-2-fluoro-[1,1′-biphenyl]-4-yl)oxy)-3,3-dimethylbutan-2-yl)amino)benzamido)propanoic Acid] were 68 nM and 166.9 nM.
In assay [1], `CC(C)(C)[C@@H](COc1ccc(-c2ccc(C(F)(F)F)cc2F)c(F)c1)Nc1ccc(C(=O)NCCC(=O)O)cc1` [Compound 8-23, (S)-3-(4-((1-((2,2′-difluoro-4′-(trifluoromethyl)-[1,1′-biphenyl]-4-yl)oxy)-3,3-dimethylbutan-2-yl)amino)benzamido)propanoic Acid] had an IC50 of 81 nM. Also, in assay [2], the “IC50 cAMP” value came to 89.46 nM.
The compound `CCCC[C@@H](COc1ccc(-c2nnc(C(F)(F)F)o2)c(F)c1)Nc1ccc(C(=O)NCCC(=O)O)cc1` [Compound 8-24, (S)-3-(4-((1-(3-fluoro-4-(5-(trifluoromethyl)-1,3,4-oxadiazol-2-yl)phenoxy)hexan-2-yl)amino)benzamido)propanoic Acid] had a half-inhibitory concentration (IC50) in assay [1] of 366 nM. Besides, the “IC50 cAMP” value in assay [2] came to 2701 nM.
With `CC(C)[C@@H](COc1ccc(-c2nc3ccccc3s2)c(F)c1)Nc1ccc(C(=O)NCCC(=O)O)cc1` [Compound 8-25, (S)-3-(4-((1-(4-(benzo[d]thiazol-2-yl)-3-fluorophenoxy)-3-methylbutan-2-yl)amino)benzamido)propanoic Acid], the IC50 in assay [1] is 95 nM. Further, the “IC50 cAMP” value in assay [2] stood at 653 nM.
In the same order, the values of `CC(C)[C@@H](COc1ccc(-c2cc3ccccc3o2)cc1)Nc1cnc(C(=O)NCCC(=O)O)cn1` [Compound 9-1, (S)-3-(5-((1-(4-(benzofuran-2-yl)phenoxy)-3-methylbutan-2-yl)amino)pyrazino-2-carboxamido)propanoic Acid] are 125 nM and 386.1 nM.
Regarding `CC[C@H](C)[C@@H](COc1ccc(-c2ccc(Cl)cc2Cl)cc1)Nc1cnc(C(=O)NCCC(=O)O)cn1` [Compound 9-2, 3-(5-(((2S,3 S)-1-((2′,4′-dichloro-[1,1′-biphenyl]-4-yl)oxy)-3-methylpentan-2-yl)amino)pyrazine-2-carboxamido)propanoic Acid], the IC50 in assay [1] was 363 nM. In addition, in assay [2], the “IC50 cAMP” value was 427 nM.
Take `CC(C)[C@@H](COc1ccc(-c2ccc(C(F)(F)F)cc2)cc1)Nc1ccc(C(=O)NCCC(=O)O)nc1` [Compound 9-3, (S)-3-(5-((3-methyl-1-((4′-(trifluoromethyl)-[1,1′-biphenyl]-4-yl)oxy)butan-2-yl)amino)picolinamido)propanoic Acid]: the IC50 in assay [1] is 120 nM. Also, the “IC50 cAMP” value in assay [2] is on record as 487 nM.
In turn, `CC(C)C[C@@H](COc1cc(F)c(-c2ccc(C(F)(F)F)cc2)c(F)c1)Nc1ccc(C(=O)NCCC(=O)O)cn1` [Compound 9-4, (S)-3-(6-((1-((2,6-difluoro-4′-(trifluoromethyl)-[1,1′-biphenyl]-4-yl)oxy)-4-methylpentan-2-yl)amino)nicotinamido)propanoic Acid] gave an IC50 in assay [1] of 1670 nM. Besides, the “IC50 cAMP” value in assay [2] turned out to be 2300 nM.
Taken in the same sequence, the figures for `CC(C)[C@@H](COc1ccc(-c2nc3ccccc3s2)c(F)c1)Nc1ccc(C(=O)NCCC(=O)O)cn1` [Compound 9-5, (S)-3-(6-((1-(4-(benzo[d]thiazol-2-yl)-3-fluorophenoxy)-3-methylbutan-2-yl)amino)nicotinamido)propanoic Acid] were 606 nM and 2408 nM.
In assay [1], `CC(C)C[C@@H](COc1cnn(-c2ccc(F)cc2F)c1)Nc1ccc(C(=O)NCCC(=O)O)cc1` [Compound 9-6, (S)-3-(4-((1-((1-(2,4-difluorophenyl)-1H-pyrazol-4-yl)oxy)-4-methylpentan-2-yl)amino)benzamido)propanoic Acid] registered a 50% inhibitory concentration (IC50) of 3650 nM. Moreover, the “IC50 cAMP” value in assay [2] is 5577 nM.
As to `CC(C)[C@@H](COc1ccc(-c2ccc(C(F)(F)F)cc2)nc1)Nc1ccc(C(=O)NCCC(=O)O)cc1` [Compound 10-1, (S)-3-(4-((3-methyl-1-((6-(4-(trifluoromethyl)phenyl)pyridin-3-yl)oxy)butan-2-yl)amino)benzamido)propanoic Acid], in assay [1], the IC50 turned out to be 531 nM. Further, in assay [2], the “IC50 cAMP” value stood at 1959 nM.
The compound `CC(C)[C@@H](COc1ccc(-c2ccc(C(F)(F)F)cc2Cl)nc1)Nc1ccc(C(=O)NCCC(=O)O)cc1` [Compound 10-2] registered an IC50 in assay [1] of 255 nM. In assay [2], the “IC50 cAMP” value stood at 1805 nM.
Taken in the same sequence, the figures for `CC(C)[C@@H](COc1ccc(-c2ccc(C(F)(F)F)cc2F)nc1)Nc1ccc(C(=O)NCCC(=O)O)cc1` [Compound 10-3, (S)-3-(4-((1-((6-(2-fluoro-4-(trifluoromethyl)phenyl)pyridin-3-yl)oxy)-3-methylbutan-2-yl)amino)benzamido)propanoic Acid] were 511 nM and 1206 nM.
Compound `CC(C)[C@@H](COc1ccc(-c2ccc(Cl)cc2Cl)nc1)Nc1ccc(C(=O)NCCC(=O)O)cc1` [Compound 10-4, (S)-3-(4-((1-((6-(2,4-dichlorophenyl)pyridin-3-yl)oxy)-3-methylbutan-2-yl)amino)benzamido)propanoic Acid] gave an IC50 in assay [1] of 445 nM. Also, the “IC50 cAMP” value in assay [2] worked out at 4036 nM.
Consider `CC(C)[C@@H](COc1ccc(-c2cc(Cl)cc(Cl)c2)nc1)Nc1ccc(C(=O)NCCC(=O)O)cc1` [Compound 10-5, (S)-3-(4-((1-((6-(3,5-dichlorophenyl)pyridin-3-yl)oxy)-3-methylbutan-2-yl)amino)benzamido)propenoic Acid], for which the IC50 in assay [1] came to 441 nM. Further, the “IC50 cAMP” value in assay [2] was determined as 3690 nM.
In the same order, the values of `CC(C)[C@@H](COc1ccc(-c2cc3ccccc3o2)nc1)Nc1ccc(C(=O)NCCC(=O)O)cc1` [Compound 10-6, (S)-3-(4-((1-((6-(benzofuran-2-yl)pyridin-3-yl)oxy)-3-methylbutan-2-yl)amino)benzamido)propanoic Acid] are 252 nM and 2650 nM.
Turning to `CCCC[C@@H](COc1ccc(-c2ccc(Cl)cc2Cl)nc1)Nc1ccc(C(=O)NCCC(=O)O)cc1` [Compound 10-7, (S)-3-(4-((1-((6-(2,4-dichlorophenyl)pyridin-3-yl)oxy)hexan-2-yl)amino)benzamido)propanoic Acid], the IC50 in assay [1] amounted to 319 nM. Besides, the “IC50 cAMP” value in assay [2] is 732 nM.
